Usually IC50 stands for the concentration at which inhibition is half-maximal.

The record followed here is patent publication US20240190890A1, “MK2 INHIBITORS AND USES THEREOF” (Bristol-Myers Squibb Company, priority 2022, published 2024).

The target in the assay is p38a activated, mitogen-activated protein kinase-activated protein kinase 2 (MAPKAP-K2 or MK2) enzyme (Homo sapiens (Human), UniProt P49137). Briefly: MK2 Omnia continuous-read kinase assay for compound potency. It is filed as biochemical. The note with it: [MK-2]=0.4 nM, [ATP]=10 μM, [ST3-Sox]=10 μM; room temperature. An outline of the steps: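 Continuous Sox-peptide fluorescence read (ex360/em485) every 71 s over 2 h at room temperature. Reactions: 10 μM each of ATP (at apparent Km) and S/T3-Sox, 0.4 nM p38a-activated MK2, pH 7.5 Tris/MgCl2 buffer. Initial rates yield % inhibition and IC50; single-exponential kobs values yield apparent kinact/KI.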
Sequence of p38a activated, mitogen-activated protein kinase-activated protein kinase 2 (MAPKAP-K2 or MK2) enzyme (P49137 whole entry): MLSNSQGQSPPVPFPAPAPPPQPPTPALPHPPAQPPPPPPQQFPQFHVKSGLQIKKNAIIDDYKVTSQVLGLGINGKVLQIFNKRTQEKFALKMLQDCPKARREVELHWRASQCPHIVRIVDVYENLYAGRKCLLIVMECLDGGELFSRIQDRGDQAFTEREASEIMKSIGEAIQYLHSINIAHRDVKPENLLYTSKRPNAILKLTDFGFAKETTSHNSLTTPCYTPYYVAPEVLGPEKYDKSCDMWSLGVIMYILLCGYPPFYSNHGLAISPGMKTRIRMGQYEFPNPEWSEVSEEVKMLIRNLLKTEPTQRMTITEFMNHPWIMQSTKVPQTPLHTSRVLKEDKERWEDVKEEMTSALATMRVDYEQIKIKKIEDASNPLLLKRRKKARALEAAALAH
For the compound `C#Cc1nccc(-c2ccc3c(ccc4sc5c(c43)NC[C@@H](C)NC5=O)n2)c1F` [Example I-218, (R)-3-(2-ethynyl-3-fluoropyridin-4-yl)-10-methyl-9,10,11,12-tetrahydro-8H-[1,4]diazepino[5′,6′:4,5]thieno[3,2-f]quinolin-8-one], the half-inhibitory concentration (IC50) worked out at 79 nM.
Turning to `C[C@@H]1CNc2c(sc3ccc4nc(-c5cc(Cl)nc(C6CCN(C)CC6)c5)ccc4c23)C(=O)N1` [Example I-103, (R)-3-(2-chloro-6-(1-methylpiperidin-4-yl)pyridin-4-yl)-10-methyl-9,10,11,12-tetrahydro-8H-[1,4]diazepino[5′,6′:4,5]thieno[3,2-f]quinolin-8-one], the 50% inhibitory concentration (IC50) came out at 46 nM.
In the case of `C=Cc1cc(-c2ccc3c(ccc4sc5c(c43)NC[C@@H](C)NC5=O)n2)c(CN2C[C@@H](C)O[C@@H](C)C2)cn1` [Example I-213, (R)-3-(5-(((2S,6R)-2,6-dimethylmorpholino)methyl)-2-vinylpyridin-4-yl)-10-methyl-9,10,11,12-tetrahydro-8H-[1,4]diazepino[5′,6′:4,5]thieno[3,2-f]quinolin-8-one] it was 103 nM; in that of `C[C@@H]1CNc2c(sc3ccc4nc(-c5cncc(Cl)c5)ccc4c23)C(=O)N1` [Example I-81, (R)-3-(5-chloropyridin-3-yl)-10-methyl-9,10,11,12-tetrahydro-8H-[1,4]diazepino[5′,6′:4,5]thieno[3,2-f]quinolin-8-one], 90 nM.
Under `C#Cc1cc(-c2ccc3c(ccc4sc5c(c43)NC[C@@H](C)NC5=O)n2)cc(C2=CCN(C)CC2)n1` [Example I-102, (R)-3-(6-ethynyl-1′-methyl-1′,2′,3′,6′-tetrahydro-[2,4′-bipyridin]-4-yl)-10-methyl-9,10,11,12-tetrahydro-8H-[1,4]diazepino[5′,6′:4,5]thieno[3,2-f]quinolin-8-one] stands 8 nM; under `C=Cc1cc(-c2ccc3c(ccc4sc5c(c43)NC[C@@H](C)NC5=O)n2)cc(CN2C[C@@H](C)O[C@@H](C)C2)n1` [Example I-185, (R)-3-(2-(((2S,6R)-2,6-dimethylmorpholino)methyl)-6-vinylpyridin-4-yl)-10-methyl-9,10,11,12-tetrahydro-8H-[1,4]diazepino[5′,6′:4,5]thieno[3,2-f]quinolin-8-one], 7 nM; under `C=Cc1nc(C)c(C)n1-c1ccc2c(ccc3sc4c(c32)NC[C@@H](C)NC4=O)n1` [Example I-231, (R)-3-(4,5-dimethyl-2-vinyl-1H-imidazol-1-yl)-10-methyl-9,10,11,12-tetrahydro-8H-[1,4]diazepino[5′,6′:4,5]thieno[3,2-f]quinolin-8-one], 28 nM.
For `C#Cc1cc(-c2ccc3c(ccc4sc5c(c43)NC[C@@H](C)NC5=O)n2)cc(N2CCC(OC)CC2)n1` [Example I-159, (R)-3-(2-ethynyl-6-(4-methoxypiperidin-1-yl)pyridin-4-yl)-10-methyl-9,10,11,12-tetrahydro-8H-[1,4]diazepino[5′,6′:4,5]thieno[3,2-f]quinolin-8-one], the IC50 turned out to be 189 nM.
In the case of `C=Cc1cc(-c2ccc3c(ccc4sc5c(c43)NC[C@@H](C)NC5=O)n2)nc(COC)n1` [Example I-13, (R)-3-(2-(methoxymethyl)-6-vinylpyrimidin-4-yl)-10-methyl-9,10,11,12-tetrahydro-8H-[1,4]diazepino[5′,6′:4,5]thieno[3,2-f]quinolin-8-one] it was 1 nM; in that of `C#Cc1cc(-c2ccc3c(ccc4sc5c(c43)NC[C@@H](C)NC5=O)n2)cc(CN2CCOCC2)n1` [Example I-169, (R)-3-(2-ethynyl-6-(morpholinomethyl)pyridin-4-yl)-10-methyl-9,10,11,12-tetrahydro-8H-[1,4]diazepino[5′,6′:4,5]thieno[3,2-f]quinolin-8-one], 39 nM.
Under `C=Cc1nc(C2CC2)n(-c2ccc3c(ccc4sc5c(c43)NC[C@@H](C)NC5=O)n2)n1` [Example I-248, (R)-3-(5-cyclopropyl-3-vinyl-1H-1,2,4-triazol-1-yl)-10-methyl-9,10,11,12-tetrahydro-8H-[1,4]diazepino[5′,6′:4,5]thieno[3,2-f]quinolin-8-one] stands 303 nM; under `C=Cc1cccc(-c2ccc3c(ccc4sc5c(c43)NC[C@@H](C)NC5=O)n2)n1` [Example I-54, (R)-10-methyl-3-(6-vinylpyridin-2-yl)-9,10,11,12-tetrahydro-8H-[1,4]diazepino[5′,6′:4,5]thieno[3,2-f]quinolin-8-one], 61 nM.
For the compound `C=Cc1nc(C(F)(F)F)nn1-c1ccc2c(ccc3sc4c(c32)NC[C@@H](C)NC4=O)n1` [Example I-226, (R)-10-methyl-3-(3-(trifluoromethyl)-5-vinyl-1H-1,2,4-triazol-1-yl)-9,10,11,12-tetrahydro-8H-[1,4]diazepino[5′,6′:4,5]thieno[3,2-f]quinolin-8-one], the IC50 was found to be 7 nM.
Regarding `COc1nnc(/C=C/CN(C)C)cc1-c1ccc2c(ccc3sc4c(c32)NC[C@@H](C)NC4=O)n1` [Example I-145, (R,E)-3-(6-(3-(dimethylamino)prop-1-en-1-yl)-3-methoxypyridazin-4-yl)-10-methyl-9,10,11,12-tetrahydro-8H-[1,4]diazepino[5′,6′:4,5]thieno[3,2-f]quinolin-8-one], the IC50 is 273 nM.
Under `C[C@@H]1CNc2c(sc3ccc4nc(-c5cc(Cl)nc(C6=CCN(C)CC6)c5)ccc4c23)C(=O)N1` [Example I-100, (R)-3-(6-chloro-1′-methyl-1′,2′,3′,6′-tetrahydro-[2,4′-bipyridin]-4-yl)-10-methyl-9,10,11,12-tetrahydro-8H-[1,4]diazepino[5′,6′:4,5]thieno[3,2-f]quinolin-8-one] stands 62 nM; under `C=Cc1cc(-c2ccc3c(ccc4sc5c(c43)NC[C@@H](C)NC5=O)n2)cc(N2CCC(COC)CC2)n1` [Example I-240, (R)-3-(2-(4-(methoxymethyl)piperidin-1-yl)-6-vinylpyridin-4-yl)-10-methyl-9,10,11,12-tetrahydro-8H-[1,4]diazepino[5′,6′:4,5]thieno[3,2-f]quinolin-8-one], 107 nM; under `C=Cc1ccn(-c2ccc3c(ccc4sc5c(c43)NC[C@@H](C)NC5=O)n2)n1` [Example I-147, (R)-10-methyl-3-(3-vinyl-1H-pyrazol-1-yl)-9,10,11,12-tetrahydro-8H-[1,4]diazepino[5′,6′:4,5]thieno[3,2-f]quinolin-8-one], 104 nM.
Consider `COCc1nc(Cl)cc(-c2ccc3c(ccc4sc5c(c43)NC[C@@H](C)NC5=O)n2)n1` [Example I-7, (R)-3-(6-chloro-2-(methoxymethyl)pyrimidin-4-yl)-10-methyl-9,10,11,12-tetrahydro-8H-[1,4]diazepino[5′,6′:4,5]thieno[3,2-f]quinolin-8-one], for which the IC50 was determined as 6 nM.
In the case of `C=Cc1cc(-c2ccc3c(ccc4sc5c(c43)NC[C@@H](C)NC5=O)n2)c(OC(F)(F)F)cn1` [Example I-245, (R)-10-methyl-3-(5-(trifluoromethoxy)-2-vinylpyridin-4-yl)-9,10,11,12-tetrahydro-8H-[1,4]diazepino[5′,6′:4,5]thieno[3,2-f]quinolin-8-one] it was 74 nM.
On to `C=C(F)c1ncc(F)c(-c2ccc3c(ccc4sc5c(c43)NC[C@@H](C)NC5=O)n2)n1` [Example I-31, (R)-3-(5-fluoro-2-(1-fluorovinyl)pyrimidin-4-yl)-10-methyl-9,10,11,12-tetrahydro-8H-[1,4]diazepino[5′,6′:4,5]thieno[3,2-f]quinolin-8-one], for which the IC50 was 24 nM.
Under `C=Cc1cc(-c2ccc3c(ccc4sc5c(c43)NC[C@@H](C)NC5=O)n2)cc(CN2CCC(OC)CC2)n1` [Example I-121, (R)-3-(2-((4-methoxypiperidin-1-yl)methyl)-6-vinylpyridin-4-yl)-10-methyl-9,10,11,12-tetrahydro-8H-[1,4]diazepino[5′,6′:4,5]thieno[3,2-f]quinolin-8-one] stands 11 nM; under `C#Cc1nc(-c2ccc3c(ccc4sc5c(c43)NC[C@@H](C)NC5=O)n2)cc(N2CCN(C)CC2)n1` [Example I-60, (R)-3-(2-ethynyl-6-(4-methylpiperazin-1-yl)pyrimidin-4-yl)-10-methyl-9,10,11,12-tetrahydro-8H-[1,4]diazepino[5′,6′:4,5]thieno[3,2-f]quinolin-8-one], 58 nM.
Under `C[C@@H]1CNc2c(sc3ccc4nc(-n5ccnc5Cl)ccc4c23)C(=O)N1` [Example I-205, (R)-3-(2-chloro-1H-imidazol-1-yl)-10-methyl-9,10,11,12-tetrahydro-8H-[1,4]diazepino[5′,6′:4,5]thieno[3,2-f]quinolin-8-one] stands 97 nM; under `C=Cc1cc(-c2ccc3c(ccc4sc5c(c43)NC[C@@H](C)NC5=O)n2)c(CN2CCC(OC)CC2)cn1` [Example I-155, (R)-3-(5-((4-methoxypiperidin-1-yl)methyl)-2-vinylpyridin-4-yl)-10-methyl-9,10,11,12-tetrahydro-8H-[1,4]diazepino[5′,6′:4,5]thieno[3,2-f]quinolin-8-one], 95 nM; under `C=Cc1nc(CN2CCN(C)CC2)cc(-c2ccc3c(ccc4sc5c(c43)NC[C@@H](C)NC5=O)n2)n1` [Example I-88, (R)-10-methyl-3-(6-((4-methylpiperazin-1-yl)methyl)-2-vinylpyrimidin-4-yl)-9,10,11,12-tetrahydro-8H-[1,4]diazepino[5′,6′:4,5]thieno[3,2-f]quinolin-8-one], 15 nM.
In the case of `C=Cc1cc(-c2ccc3c(ccc4sc5c(c43)NC[C@@H](C)NC5=O)n2)c(C)c(CN2CCOCC2)n1` [Example I-197, (R)-10-methyl-3-(3-methyl-2-(morpholinomethyl)-6-vinylpyridin-4-yl)-9,10,11,12-tetrahydro-8H-[1,4]diazepino[5′,6′:4,5]thieno[3,2-f]quinolin-8-one] it was 5 nM.
